Experimental data taken from US20250296971A1, “GASTRIC INHIBITORY PEPTIDE RECEPTOR LIGANDS” (priority 2021, published 2025).
Like-named read-outs stand apart in the source and are kept apart here. *1 amine or outer side, *2 acyl side, *3 side chain or, on linkers, in order; H or OH if unused. Where a SMILES comes first, the peptide text is derived from it. Bridges are numbered along the chain shown (N, C = ends). [ ]: non-standard residue; d: D form. The star is where a group is joined. X5 = NC(=O)[C@H](CCCCNC(=O)CN1CCN(CC(=O)O)CCN(CC(=O)O)CCN(CC(=O)O)CC1)NC(=O)CCC(=O)NCCCOCCOCCOCCCN*; DOTA(Ga) = O=C1CN2CCN3CCN(CC(=O)*)CCN(CC2)CC(=O)[O][Ga]([O]1)[O]C(=O)C3; DOTA(Lu) = O=C1CN2CCN3CCN(CC(=O)*)CCN(CC2)CC(=O)[O][Lu]([O]1)[O]C(=O)C3; X3 = O=C(O)CN1CCN(CC(=O)O)CCN(CC(=O)NCCCOCCOCCOCCCN*)CCN(CC(=O)O)CC1; NH(1-deoxy-D-glucityl) = OC[C@@H](O)[C@@H](O)[C@H](O)[C@@H](O)CN*; DOTA = O=C(O)CN1CCN(CC(=O)O)CCN(CC(=O)*)CCN(CC(=O)O)CC1; Trp(5-Cl) = N[C@@H](Cc1c[nH]c2ccc(Cl)cc12)C(=O)O; Pyridine(2,6-diCH2) = c1cc(C[*:1])nc(C[*:2])c1; Pro(4R-NH2) = N[C@H]1CN[C@H](C(=O)O)C1; mXylylene = c1cc(C[*:1])cc(C[*:2])c1; Glutaryl = O=C(CCCC(=O)[*:2])[*:1]; X7 = c1cc(CSCCN[*:2])cc(C[*:1])c1; Hyp = O=C(O)[C@@H]1C[C@@H](O)CN1; X1 = O=C(CN1CCC(N[*:1])CC1)[*:2]; Suc = O=C(CCC(=O)[*:2])[*:1]; hSer = N[C@@H](CCO)C(=O)O; Api = NC1(C(=O)O)CCNCC1; Aib = CC(C)(N)C(=O)O

Assays:
[1] = biological target: T1, human GIP receptor (bioGIPR) (Homo sapiens, UniProt P48546); assay: Surface plasmon resonance (SPR) based binding assay; conditions: for t1/2 Category: SPR dissociation half-life
T1 construct: Biotinylate extracellular of the human GIP receptor (bioGIPR, Proteros biostructures GmbH, lot #02/2b); purchased Proteros biostructures GmbH lot #02/2b
T1 sequence (P48546 22-138 limits assumed): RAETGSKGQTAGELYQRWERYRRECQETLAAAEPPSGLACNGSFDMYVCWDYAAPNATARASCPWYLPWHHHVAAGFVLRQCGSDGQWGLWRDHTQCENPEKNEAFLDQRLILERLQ
Method: Surface plasmon resonance (SPR) studies were performed using a Biacore™ T200 SPR system. Briefly, polarized light is directed towards a gold-labeled sensor surface, and minimum intensity reflected light is detected. The angle of reflected light changes as molecules bind and dissociate.
Biotinylate extracellular of the human GIP receptor (bioGIPR, Proteros biostructures GmbH, lot #02/2b) was captured on a biotin capture chip (Biotin CAPture Kit, Series S, GE Healthcare, Cat #28-9202-34). bioGIPR was diluted in Running Buffer (HBST from Xantec Analytics; […], 0.05% Tween20, 0.1% DMSO) to a final concentration 100 nM and than flushed over the Fc-capture chip to immobilized ˜3500 RUs.
Stock solutions of test compounds were prepared by dissolving each compound in DMSO. DMSO stock solution were diluted 1:1000 in Running Buffer without DMSO. Further sequential dilutions were made with Running Buffer containing 0.1% DMSO. SPR binding analyses were performed in Single Cycle Kinetic (SCK) mode at 25° C. Flow cell without immobilized bioGIPR served as reference flowcell. After each SCK run, bioGIRP and the Biotin Capture Reagent was removed with Regeneration Solution (6 M Guanidium, 0.75 M NaOH).
In between every three SCK measurements, a blank run with Running Buffer instead of test compound was included to correct for baseline drifts (double blanking method).
For each test compound, SPR raw data in the form of resonance units (RU) were plotted as sensorgrams using the Biacore™ T200 control software. The signal from the blank sensorgram was subtracted from that of the test compound sensorgram (blank corrected). The blank corrected sensorgram was corrected for baseline drift by subtracting the sensorgram of a SCK run without the test compound (running buffer only). The association rate (kon), dissociation rate (koff), dissociation constant (KD), and t1/2 were calculated from blank corrected SPR data using the 1:1 Langmuir binding model from the Biacore™ T200 evaluation software. Raw data and fit results were imported as text files in IDBS. The pKD value (negative decadic logarithm of dissociation constant) was calculated in the IDBS excel template.

[2] = biological target: T2, GIPR (CHO-K1-hGIPR cells) (Homo sapiens, UniProt P48546); assay: FACS binding assay; conditions: competition with 20 nM GIP-057, 4° C., 1 hour
T2 construct: host or cells: CHO-K1
T2 sequence (P48546 22-466): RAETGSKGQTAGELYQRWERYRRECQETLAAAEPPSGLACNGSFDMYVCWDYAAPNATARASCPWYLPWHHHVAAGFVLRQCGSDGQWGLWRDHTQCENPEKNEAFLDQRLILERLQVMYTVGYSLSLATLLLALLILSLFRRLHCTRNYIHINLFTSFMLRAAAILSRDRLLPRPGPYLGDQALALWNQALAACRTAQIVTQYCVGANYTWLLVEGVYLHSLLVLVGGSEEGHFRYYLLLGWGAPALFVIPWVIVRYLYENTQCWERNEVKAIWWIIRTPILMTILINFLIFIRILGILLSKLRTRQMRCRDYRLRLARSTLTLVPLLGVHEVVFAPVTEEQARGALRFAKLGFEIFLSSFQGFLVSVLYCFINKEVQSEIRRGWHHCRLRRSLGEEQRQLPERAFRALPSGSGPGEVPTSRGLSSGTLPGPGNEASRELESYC
Outline: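 CHO-K1 cells stably expressing human GIPR were detached with Accutase, suspended at 500.000 cells per mL in PBS with 1% FCS, and washed ice-cold. Bound peptide was detected with 1 μg/mL APC-streptavidin for 30 min on ice.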

[3] = Single Cycle Kinetic mode, 25° C.
[4] = SPR, Single Cycle Kinetic mode, 25° C., 1:1 Langmuir binding model, read-out: pKD Category (converted)
[5] = read-out: pIC50 Category (converted)

Row | SMILES | t1/2 Category [1, 3] | Kd [1, 4] | IC50 [2, 5] | Kd [1] | IC50 ([2]; pIC50 Category)
1 | CC[C@H](C)[C@@H]1NC(=O)[C@H](CC(C)C)NC(=O)C2(CCN(C(=O)CN3CCN(CC(=O)O)CCN(CC(=O)O)CCN(CC(=O)O)CC3)CC2)NC(=O)[C@@H](NC(=O)[C@@H](CC(C)C)NC(=O)[C@H](CCO)NC(=O)[C@@H]2C[C@@H](N)CN2C(=O)[C@H](Cc2c[nH]c3ccc(Cl)cc23)NC(=O)[C@H](Cc2c[nH]c3ccccc23)NC(=O)[C@H](CO)NC(=O)CN2CCC(NC(=O)CCCC(=O)NC[C@H](O)[C@@H](O)[C@H](O)[C@H](O)CO)CC2)CSCc2cccc(n2)CSC[C@@H](C(=O)NC2CCN(CC(=O)N[C@H](CCC(=O)NC[C@H](O)[C@@H](O)[C@H](O)[C@H](O)CO)C(N)=O)CC2)NC1=O [GIP-048, AGLU-Glutar-APAc-Ser-Trp-5Clw-Tap-Hse-leu-[Cys(2Lut)-Apc(DOTA)-Leu-Ile-Cys]-APAc-glu(AGLU)-NH2] ({NH(1-deoxy-D-glucityl)-Glutaryl}-[X1]SW[Trp(5-Cl)][Pro(4R-NH2)][hSer][dL]C[Api](DOTA)LIC[X1][dE](NH(1-deoxy-D-glucityl))-NH2; linker 8-12 via Pyridine(2,6-diCH2)) | D (t1/2<2.0 min) | 1 to 7.94 nM | 10 to 79.4 nM | – | –
2 | CC[C@H](C)[C@@H]1NC(=O)[C@H](CC(C)C)NC(=O)C2(CCN(C(=O)CN3CCN(CC(=O)O)CCN(CC(=O)O)CCN(CC(=O)O)CC3)CC2)NC(=O)[C@@H](NC(=O)[C@@H](CC(C)C)NC(=O)[C@H](CCC(=O)O)NC(=O)[C@@H]2C[C@@H](O)CN2C(=O)[C@H](Cc2c[nH]c3ccc(Cl)cc23)NC(=O)[C@H](Cc2c[nH]c3ccccc23)NC(=O)[C@H](CCO)NC(=O)CN2CCC(NC(=O)CCCC(=O)NC[C@H](O)[C@@H](O)[C@H](O)[C@H](O)CO)CC2)CSCc2cccc(n2)CSC[C@@H](C(=O)NC2CCN(CC(=O)N[C@H](CCC(=O)NC[C@H](O)[C@@H](O)[C@H](O)[C@H](O)CO)C(N)=O)CC2)NC1=O [GIP-049, AGLU-Glutar-APAc-Hse-Trp-5Clw-Hyp-Glu-leu-[Cys(2Lut)-Apc(DOTA)-Leu-Ile-Cys]-APAc-glu(AGLU)-NH2] ({NH(1-deoxy-D-glucityl)-Glutaryl}-[X1][hSer]W[Trp(5-Cl)][Hyp]E[dL]C[Api](DOTA)LIC[X1][dE](NH(1-deoxy-D-glucityl))-NH2; linker 8-12 via Pyridine(2,6-diCH2)) | D (t1/2<2.0 min) | 1 to 7.94 nM | 10 to 79.4 nM | – | –
3 | CC[C@H](C)[C@@H]1NC(=O)[C@H](CC(C)C)NC(=O)C2(CCN(C(=O)CN3CCN4CCN5CCN(CC3)CC(=O)[O][Lu]([O]C(=O)C5)[O]C(=O)C4)CC2)NC(=O)[C@@H](NC(=O)[C@@H](CC(C)C)NC(=O)[C@H](CCC(=O)O)NC(=O)[C@@H]2C[C@@H](N)CN2C(=O)[C@H](Cc2c[nH]c3ccc(Cl)cc23)NC(=O)[C@H](Cc2c[nH]c3ccccc23)NC(=O)[C@H](CC(=O)O)NC(=O)CCCC(=O)NC[C@H](O)[C@@H](O)[C@H](O)[C@H](O)CO)CSCc2cccc(n2)CSC[C@@H](C(=O)NC2CCN(CC(=O)N[C@H](CCC(=O)NC[C@H](O)[C@@H](O)[C@H](O)[C@H](O)CO)C(N)=O)CC2)NC1=O [GIP-066, Lutetium-Complex of AGLU-Glutar-Asp-Trp-5Clw-Hyp-Glu-leu-[Cys(2Lut)-Apc(DOTA)-Leu-Ile-Cys]-APAc-glu(AGLU)-NH2] ({NH(1-deoxy-D-glucityl)-Glutaryl}-DW[Trp(5-Cl)][Pro(4R-NH2)]E[dL]C[Api](DOTA(Lu))LIC[X1][dE](NH(1-deoxy-D-glucityl))-NH2; linker 7-11 via Pyridine(2,6-diCH2)) | A (t1/2 values>15 min) | – | – | < 1 nM | < 10 nM
4 | CC[C@H](C)[C@@H]1NC(=O)[C@H](CC(C)C)NC(=O)C2(CCN(C(=O)CN3CCN4CCN5CCN(CC3)CC(=O)[O][Ga]([O]C(=O)C5)[O]C(=O)C4)CC2)NC(=O)[C@@H](NC(=O)[C@@H](CC(C)C)NC(=O)[C@H](CCC(=O)O)NC(=O)[C@@H]2C[C@@H](N)CN2C(=O)[C@H](Cc2c[nH]c3ccc(Cl)cc23)NC(=O)[C@H](Cc2c[nH]c3ccccc23)NC(=O)[C@H](CC(=O)O)NC(=O)CCCC(=O)NC[C@H](O)[C@@H](O)[C@H](O)[C@H](O)CO)CSCc2cccc(n2)CSC[C@@H](C(=O)NC2CCN(CC(=O)N[C@H](CCC(=O)NC[C@H](O)[C@@H](O)[C@H](O)[C@H](O)CO)C(N)=O)CC2)NC1=O [GIP-069, Gallium-Complex of AGLU-Glutar-Asp-Trp-5Clw-Tap-Glu-leu-[Cys(2Lut)-Apc(DOTA)-Leu-Ile-Cys]-APAc-glu(AGLU)-NH2] ({NH(1-deoxy-D-glucityl)-Glutaryl}-DW[Trp(5-Cl)][Pro(4R-NH2)]E[dL]C[Api](DOTA(Ga))LIC[X1][dE](NH(1-deoxy-D-glucityl))-NH2; linker 7-11 via Pyridine(2,6-diCH2)) | A (t1/2 values>15 min) | < 1 nM | < 10 nM | – | –
5 | CC[C@H](C)[C@@H]1NC(=O)[C@H](CC(C)C)NC(=O)C(C)(C)NC(=O)[C@@H](NC(=O)[C@@H](CC(C)C)NC(=O)[C@H](CCC(=O)O)NC(=O)[C@@H]2CCCN2C(=O)[C@H](Cc2c[nH]c3ccc(Cl)cc23)NC(=O)[C@H](Cc2c[nH]c3ccccc23)NC(=O)[C@H](CC(=O)O)NC(=O)CCC(=O)NCCCOCCOCCOCCCNC(=O)CN2CCN(CC(=O)O)CCN(CC(=O)O)CCN(CC(=O)O)CC2)CSCc2cccc(c2)CSCCNC1=O [GIP-077, DOTA-Ttds-Asp-Trp-5Clw-Pro-Glu-leu-[Cys(3MeBn)-Aib-Leu-Ile-AET]] ({X3-Suc}-DW[Trp(5-Cl)]PE[dL]C[Aib]LI; linker 7-C via X7) | – | < 1 nM | < 10 nM | – | –
6 | CC[C@H](C)[C@@H]1NC(=O)[C@H](CC(C)C)NC(=O)C(C)(C)NC(=O)[C@@H](NC(=O)[C@@H](CC(C)C)NC(=O)[C@H](CCC(=O)O)NC(=O)[C@@H]2CCCN2C(=O)[C@H](Cc2c[nH]c3ccc(Cl)cc23)NC(=O)[C@H](Cc2c[nH]c3ccccc23)NC(=O)[C@H](CC(=O)O)NC(C)=O)CSCc2cccc(c2)CSC[C@@H](C(=O)NCCCOCCOCCOCCCNC(=O)CCC(=O)N[C@@H](CCCCNC(=O)CN2CCN(CC(=O)O)CCN(CC(=O)O)CCN(CC(=O)O)CC2)C(N)=O)NC1=O [GIP-079, Ac-Asp-Trp-5Clw-Pro-Glu-leu-[Cys(3MeBn)-Aib-Leu-Ile-Cys]-Ttds-Lys(DOTA)-NH2] (Ac-DW[Trp(5-Cl)]PE[dL]C[Aib]LIC-X5; linker 7-11 via mXylylene) | A (t1/2 values>15 min) | < 1 nM | < 10 nM | – | –
7 | CC[C@H](C)[C@@H]1NC(=O)[C@H](CC(C)C)NC(=O)C(C)(C)NC(=O)[C@@H](NC(=O)[C@@H](CC(C)C)NC(=O)[C@H](CCC(=O)O)NC(=O)[C@@H]2C[C@@H](N)CN2C(=O)[C@H](Cc2c[nH]c3ccc(Cl)cc23)NC(=O)[C@H](Cc2c[nH]c3ccccc23)NC(=O)[C@H](CC(=O)O)NC(=O)CCC(=O)NCCCOCCOCCOCCCNC(=O)CN2CCN(CC(=O)O)CCN(CC(=O)O)CCN(CC(=O)O)CC2)CSCc2cccc(c2)CSCCNC1=O [GIP-095, DOTA-Ttds-Asp-Trp-5Clw-Tap-Glu-leu-[Cys(3MeBn)-Aib-Leu-Ile-AET]] ({X3-Suc}-DW[Trp(5-Cl)][Pro(4R-NH2)]E[dL]C[Aib]LI; linker 7-C via X7) | A (t1/2 values>15 min) | < 1 nM | < 10 nM | – | –
